ChEMBL document CHEMBL1201862, “PubChem BioAssay data set” (2004)
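Each compound was tested at five concentrations against cells in 96-well plates for 48 hours. The concentration for 50% growth inhibition is given as GI50.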 Activity calls are given as the source filed them. Cut-off read from the data, not from the text of the source: active = GI50 up to about 1.1 µM and inactive = higher.

Columns and labels:
Test in all cases: growth of human tumour cells (NCI), 48 h
[1] = system: SNB-78
[2] = system: XF498
[3] = system: HOP-18
[4] = system: RXF 631
[5] = system: KM-20L2
[6] = system: DLD-1
[7] = system: DMS-273
[8] = system: LXFL 529

Row | SMILES | GI50 [1] | GI50 [2] | GI50 [3] | GI50 [4] | GI50 [5] | GI50 [6] | GI50 [7] | GI50 [8]
1 | CNC(=O)OCc1nc(SSc2nc(COC(=O)NC)c(COC(=O)NC)n2C)n(C)c1COC(=O)NC | > 100 µM (inactive) | > 100 µM (inactive) | > 100 µM (inactive) | > 100 µM (inactive) | > 100 µM (inactive) | > 100 µM (inactive) | > 100 µM (inactive) | > 100 µM (inactive)
2 | CCOC(=O)C1C(=S)NC(=O)C1C#N (configuration not stated) |  |  | > 100 µM (inactive) | > 100 µM (inactive) | > 100 µM (inactive) | > 100 µM (inactive) | > 100 µM (inactive) | > 100 µM (inactive)
3 | CNCCCCN(C)/[N+]([O-])=N\O | > 100 µM (inactive) |  | > 100 µM (inactive) | > 100 µM (inactive) | > 100 µM (inactive) | > 100 µM (inactive) | > 100 µM (inactive) | > 100 µM (inactive)
4 | C/C(=N\NC(N)=S)c1ccc2c(c1)OCO2 | > 100 µM (inactive) | > 100 µM (inactive) | > 100 µM (inactive) | > 100 µM (inactive) | > 100 µM (inactive) | 61.9 µM (inactive) |  | > 100 µM (inactive)
5 | CSc1c(C)c(C)nn1-c1ccccc1 | > 100 µM (inactive) | 59.8 µM (inactive) | < 0.01 µM (active) | > 100 µM (inactive) | > 100 µM (inactive) | > 100 µM (inactive) | > 100 µM (inactive) | > 100 µM (inactive)
6 | COC(=O)C1=C(C(=O)OC)C2(C3C(SC)=CC(C)(C)CC3S1)N(Cc1ccccc1)CCN2Cc1ccccc1 (configuration not stated) | > 100 µM (inactive) | > 100 µM (inactive) | > 100 µM (inactive) | > 100 µM (inactive) | > 100 µM (inactive) | > 100 µM (inactive) | > 100 µM (inactive) | > 100 µM (inactive)
7 | CCCCCCCCCCCC(=O)C1=C(O)CC(O)CC1=O (configuration not stated) | > 100 µM (inactive) | > 100 µM (inactive) | > 100 µM (inactive) | > 100 µM (inactive) | > 100 µM (inactive) |  | 84.3 µM (inactive) | 83.6 µM (inactive)
8 | CC(=O)c1c2c(cc3c1CC1(C3)Cc3cc4c(c(C(C)=O)c3C1)CCC4)CCC2 | > 100 µM (inactive) | > 100 µM (inactive) | > 100 µM (inactive) | > 100 µM (inactive) |  | > 100 µM (inactive) |  | > 100 µM (inactive)
9 | O=c1cc2ccccc2nn1Cc1cccc(Cl)c1 | > 100 µM (inactive) | 18.8 µM (inactive) | > 100 µM (inactive) | > 100 µM (inactive) | > 100 µM (inactive) | > 100 µM (inactive) | 85.9 µM (inactive) | 
10 | CC1=CC=NN2C(=O)[C@H](C)C2C1 (some centres not stated) | > 100 µM (inactive) | > 100 µM (inactive) | > 100 µM (inactive) | > 100 µM (inactive) | > 100 µM (inactive) | > 100 µM (inactive) | > 100 µM (inactive) | > 100 µM (inactive)
11 | Cc1ccc(S(=O)(=O)C(CC(=O)N2CCCC2)C(=O)c2ccccc2)cc1 (configuration not stated) | 54.6 µM (inactive) | > 100 µM (inactive) | > 100 µM (inactive) | > 100 µM (inactive) |  | 71.1 µM (inactive) | 97.1 µM (inactive) | 38.5 µM (inactive)
12 | CC(C)(C)c1cc2nc(c1)C(C(F)(F)F)(C(F)(F)F)OB(Br)OC2(C(F)(F)F)C(F)(F)F | 0.12 µM (active) | 1.04 µM (active) | < 0.01 µM (active) | 0.0836 µM (active) | < 0.01 µM (active) | 0.0248 µM (active) | < 0.01 µM (active) | 0.261 µM (active)
